Test [1] deals with Plasmodium falciparum. Nature of the test: Antimalarial activity against Plasmodium falciparum Dd2 by reduced [3H]hypoxanthine uptake. In kind it is functional, organism-based.
For test [2], the target named is T1, Enoyl-acyl-carrier protein reductase (Plasmodium falciparum, UniProt Q965D5).
T1 sequence (Q965D5 whole entry): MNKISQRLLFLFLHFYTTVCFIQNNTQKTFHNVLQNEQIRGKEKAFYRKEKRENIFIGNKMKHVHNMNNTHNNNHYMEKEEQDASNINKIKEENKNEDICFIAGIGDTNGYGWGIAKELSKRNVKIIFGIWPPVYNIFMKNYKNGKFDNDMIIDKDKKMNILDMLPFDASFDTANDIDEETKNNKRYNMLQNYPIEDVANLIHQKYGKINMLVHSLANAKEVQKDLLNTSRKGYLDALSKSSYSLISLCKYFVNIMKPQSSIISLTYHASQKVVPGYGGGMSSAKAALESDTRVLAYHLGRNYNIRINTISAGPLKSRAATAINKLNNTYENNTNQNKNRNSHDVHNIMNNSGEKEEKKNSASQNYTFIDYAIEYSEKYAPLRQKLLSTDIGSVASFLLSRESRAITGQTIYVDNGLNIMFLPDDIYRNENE
Nature of the test: Inhibition of Plasmodium falciparum ENR.

The subject of test [3] is Plasmodium falciparum. In words: Antimalarial activity against Plasmodium falciparum 3D7 by reduced [3H]hypoxanthine uptake. Type of test: functional, organism-based.
Test [4] deals with Plasmodium falciparum. In words: Antimalarial activity against Plasmodium falciparum 3D7 expressing katG. Type of test: functional, organism-based.
For test [5], the system named is Plasmodium falciparum. In words: Antimalarial activity against Plasmodium falciparum Dd2 expressing katG. In kind it is functional, organism-based.
The test system of test [6] is Plasmodium falciparum. In words: Antimalarial activity against Plasmodium falciparum Dd2. In kind it is functional, organism-based.
Test [7] concerns Plasmodium falciparum. In words: Antimalarial activity against Plasmodium falciparum 3D7. Type of test: functional, organism-based.

Some results are limits rather than exact numbers.

Consider `O=C(O)c1ccc(Oc2ccc(Cl)cc2Cl)c(O)c1`, for which the 50% effective concentration (EC50) with Plasmodium falciparum [1] and in the test on Plasmodium falciparum [3] was greater than 100 µM throughout. Also, the half-inhibitory concentration (IC50) (in general, the midpoint of a concentration-inhibition curve) in test [2] is greater than 100 µM.

As for `N#Cc1ccc(Oc2ccc(-c3ccncc3)cc2O)c(Cl)c1`, the concentration giving a half-maximal response (EC50) in the test with Plasmodium falciparum [1] and in the test on Plasmodium falciparum [3] was 11 µM throughout. The IC50 in test [2] stood at 2.8 µM.

As for `Cc1ccc(Oc2ccc(Cl)cc2Cl)c(O)c1`, the 50% effective concentration (EC50) (as a rule, the midpoint of the concentration-response curve) was 14 µM in the test on Plasmodium falciparum [1] and 10 µM in the test with Plasmodium falciparum [3]. This molecule also registered a 50% inhibitory concentration (IC50) in test [2] of 0.2 µM.

With `N#Cc1ccc(Oc2ccc(-c3ccccn3)cc2O)c(Cl)c1`, the concentration for a half-maximal effect (EC50) in the test with Plasmodium falciparum [1] turned out to be 12 µM; in the test on Plasmodium falciparum [3], 8.1 µM. Besides, the concentration for half-maximal inhibition (IC50) in test [2] stood at 0.7 µM.

With `Oc1cc(-c2cccnc2)ccc1Oc1ccc(Cl)cc1Cl`, the EC50 in the test with Plasmodium falciparum [1] amounted to 39 µM; with Plasmodium falciparum [3], 23 µM. In test [2], this molecule gave an IC50 of 33 µM.

On to `Oc1cc(-c2ccccc2)ccc1Oc1ccc(Cl)cc1Cl`, for which the EC50 stood at 3.9 µM with Plasmodium falciparum [1] and 2.3 µM with Plasmodium falciparum [3]. Moreover, in test [2], the IC50 was 0.14 µM.

Turning to `CCC(C)Cc1ccc(Oc2ccc(Cl)cc2Cl)c(O)c1` (configuration not stated), the values for the concentration for a half-maximal effect (EC50) with Plasmodium falciparum [1] and in the test with Plasmodium falciparum [3] were 2.9 µM and 2 µM, respectively. Moreover, the half-maximal inhibitory concentration (IC50) in test [2] worked out at 0.29 µM.

Regarding `Oc1cc(-c2nn[nH]n2)ccc1Oc1ccc(Cl)cc1Cl`, the EC50 in the test with Plasmodium falciparum [1] and with Plasmodium falciparum [3] was greater than 100 µM throughout. In addition, in test [2], the IC50 was greater than 100 µM.

Take `Oc1cc(CCCc2ccccc2)ccc1Oc1ccc(Cl)cc1Cl`: the EC50 with Plasmodium falciparum [1] was 7.2 µM; in the test with Plasmodium falciparum [3], 6.4 µM. The molecule further came in with an IC50 in test [2] of 0.44 µM.

For `Oc1cc(CCc2ccccc2)ccc1Oc1ccc(Cl)cc1Cl`, the 50% effective concentration (EC50) with Plasmodium falciparum [1] was found to be 11 µM; in the test with Plasmodium falciparum [3], 5.6 µM. This molecule yielded an IC50 in test [2] of 0.076 µM.

As for `N#Cc1ccc(Oc2ccc(Cl)cc2Cl)c(O)c1`, the concentration giving a half-maximal response (EC50) with Plasmodium falciparum [1] came out at 22 µM; in the test with Plasmodium falciparum [3], 19 µM. Inhibition in test [2] was half-maximal at 0.049 µM (IC50).

For `NC(=O)c1ccc(Oc2ccc(Cl)cc2Cl)c(O)c1`, the EC50 with Plasmodium falciparum [1] stood at 45 µM; with Plasmodium falciparum [3], 40 µM. The molecule also returned an IC50 in test [2] of 21 µM.

On to `Oc1cc(Cc2ccccn2)ccc1Oc1ccc(Cl)cc1Cl`, for which the figures for the concentration for a half-maximal effect (EC50) in the test with Plasmodium falciparum [1] and in the test with Plasmodium falciparum [3] were 13 µM and 7.5 µM, respectively. The same molecule displayed a half-inhibitory concentration (IC50) in test [2] of 0.64 µM.

Take `Oc1cc(Cc2cccnc2)ccc1Oc1ccc(Cl)cc1Cl`: the EC50 was 11 µM with Plasmodium falciparum [1] and 6.9 µM in the test on Plasmodium falciparum [3]. Half-maximal inhibition in test [2] (IC50) required 0.84 µM.

`CCc1ccc(Oc2ccc(Cl)cc2Cl)c(O)c1`: the values for the EC50 in the test on Plasmodium falciparum [1] and with Plasmodium falciparum [3] were 6 µM and 4.6 µM, respectively. In test [2], this molecule had a half-maximal inhibitory concentration (IC50) of 0.11 µM.

Consider `Cc1cccc(-c2ccc(Oc3ccc(Cl)cc3Cl)c(O)c2)c1`, for which the 50% effective concentration (EC50) with Plasmodium falciparum [1] worked out at 6.1 µM; with Plasmodium falciparum [3], 3.5 µM. The same molecule showed an IC50 in test [2] of 0.23 µM.

Take `Oc1cc(-c2ccc(F)cc2)ccc1Oc1ccc(Cl)cc1Cl`: the results for the 50% effective concentration (EC50) in the test on Plasmodium falciparum [1] and with Plasmodium falciparum [3] were 3.1 µM and 2.1 µM, respectively. The molecule also had a half-maximal inhibitory concentration (IC50) in test [2] of 0.038 µM.

As to `CC(C)CCc1ccc(Oc2ccc(Cl)cc2Cl)c(O)c1`, the half-maximal effective concentration (EC50) with Plasmodium falciparum [1] amounted to 8 µM; in the test with Plasmodium falciparum [3], 7.4 µM. Further, in test [2], the IC50 is 0.12 µM.

Turning to `CC(C)Cc1ccc(Oc2ccc(Cl)cc2Cl)c(O)c1`, the concentration giving a half-maximal response (EC50) was determined as 2.8 µM in the test on Plasmodium falciparum [1] and 2 µM in the test on Plasmodium falciparum [3]. Moreover, the IC50 in test [2] turned out to be 0.18 µM.

As to `Cc1ccccc1-c1ccc(Oc2ccc(Cl)cc2Cl)c(O)c1`, the values for the EC50 in the test on Plasmodium falciparum [1] and in the test with Plasmodium falciparum [3] were 2.5 µM and 1.6 µM, respectively. The molecule further displayed an IC50 in test [2] of 0.44 µM.

In the case of `Cc1ccccc1-c1ccc(Oc2ccc(C#N)cc2Cl)c(O)c1`, the figures for the EC50 with Plasmodium falciparum [1] and with Plasmodium falciparum [3] were 3.3 µM and 2.6 µM, respectively. The molecule also returned a 50% inhibitory concentration (IC50) in test [2] of 0.41 µM.

For the molecule `CCCc1ccc(Oc2ccc(Cl)cc2Cl)c(O)c1`, the EC50 with Plasmodium falciparum [1] came to 3 µM; with Plasmodium falciparum [3], 2.5 µM. In test [2], this molecule displayed a 50% inhibitory concentration (IC50) of 0.21 µM.

On to `CCCCc1ccc(Oc2ccc(Cl)cc2Cl)c(O)c1`, for which the values for the half-maximal effective concentration (EC50) in the test with Plasmodium falciparum [1] and in the test with Plasmodium falciparum [3] were 3.2 µM and 3.5 µM, respectively. The molecule also yielded an IC50 in test [2] of 0.48 µM.

Turning to `Oc1cc(Cc2ccccc2)ccc1Oc1ccc(Cl)cc1Cl`, the EC50 is 12 µM with Plasmodium falciparum [1] and 11 µM in the test with Plasmodium falciparum [3]. Also, the IC50 in test [2] came out at 0.071 µM.

For `Cc1ccc(-c2ccc(Oc3ccc(Cl)cc3Cl)c(O)c2)cc1`, the EC50 came to 4.3 µM in the test on Plasmodium falciparum [1] and 2.9 µM with Plasmodium falciparum [3]. In test [2], the concentration for half-maximal inhibition (IC50) amounted to 0.19 µM.

Turning to `Oc1cc(CC2CCCCC2)ccc1Oc1ccc(Cl)cc1Cl`, the EC50 amounted to 4.8 µM in the test with Plasmodium falciparum [1] and 3.4 µM in the test with Plasmodium falciparum [3]. In addition, half-maximal inhibition in test [2] (IC50) required 0.53 µM.

With `N#Cc1ccc(Oc2ccc(Cc3ccncc3)cc2O)c(Cl)c1`, the EC50 was 13 µM with Plasmodium falciparum [1] and 7.4 µM in the test on Plasmodium falciparum [3]. In test [2], the IC50 is 0.53 µM.

`NNC(=O)c1ccncc1` [ISONIAZID]: the concentration for half-maximal inhibition (IC50) worked out at 1200 µM in the test on Plasmodium falciparum [4], 1800 µM in the test with Plasmodium falciparum [5], 1800 µM with Plasmodium falciparum [6] and 1200 µM in the test with Plasmodium falciparum [7].

Regarding `Oc1cc(Cl)ccc1Oc1ccc(Cl)cc1Cl` [TRICLOSAN], the EC50 with Plasmodium falciparum [1] was 3.8 µM; in the test with Plasmodium falciparum [3], 2.8 µM.

For the origin of these results see ChEMBL document CHEMBL1145507, “X-ray structural analysis of Plasmodium falciparum enoyl acyl carrier protein reductase as a pathway toward the optimization of triclosan antimalarial efficacy” (J Biol Chem, 2007).
